Measured values reported in ChEMBL document CHEMBL4417631, “Oral peptide inhibitors of interleukin-23 receptor and their use to treat inflammatory bowel diseases” (2017).
Where a SMILES comes first, the peptide text is derived from it. [ ]: non-standard residue; d: D form. hLeu = CC(C)CC[C@H](N)C(=O)O

Target: T1, Interleukin-23 receptor (Homo sapiens, UniProt Q5VWK5)
T1 sequence (Q5VWK5 whole entry): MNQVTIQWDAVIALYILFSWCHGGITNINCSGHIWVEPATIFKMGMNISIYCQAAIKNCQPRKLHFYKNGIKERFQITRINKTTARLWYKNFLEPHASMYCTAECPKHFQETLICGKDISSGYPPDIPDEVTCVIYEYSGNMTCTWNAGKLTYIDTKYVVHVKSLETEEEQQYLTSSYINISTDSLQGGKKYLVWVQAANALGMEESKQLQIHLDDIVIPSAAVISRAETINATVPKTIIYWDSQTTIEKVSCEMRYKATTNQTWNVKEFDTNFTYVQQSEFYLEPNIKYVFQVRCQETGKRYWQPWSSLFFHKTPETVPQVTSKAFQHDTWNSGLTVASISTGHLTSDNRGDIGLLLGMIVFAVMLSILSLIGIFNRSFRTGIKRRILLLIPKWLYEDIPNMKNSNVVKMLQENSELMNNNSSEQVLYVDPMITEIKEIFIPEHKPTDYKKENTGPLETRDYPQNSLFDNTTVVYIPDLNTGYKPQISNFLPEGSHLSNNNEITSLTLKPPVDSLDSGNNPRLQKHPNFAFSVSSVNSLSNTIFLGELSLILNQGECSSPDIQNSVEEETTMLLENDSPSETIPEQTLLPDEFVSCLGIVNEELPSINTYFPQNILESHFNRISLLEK
Assay: Inhibition of interleukin-23 binding to human interleukin-23 receptor incubated for 2 hrs by competitive binding ELISA

| SMILES | IC50 [nM] |
| --- | --- |
| CC(=O)N[C@@H](CS)C(=O)N[C@@H](CCC(N)=O)C(=O)N[C@H](C(=O)N[C@@H](Cc1c[nH]c2ccccc12)C(=O)N[C@@H](CCC(N)=O)C(=O)N[C@@H](CS)C(=O)N[C@@H](Cc1ccc(O)cc1)C(=O)N[C@@H](Cc1c[nH]c2ccccc12)C(=O)N(C)[C@@H](CCCNC(=N)N)C(=O)N[C@@H](CCC(=O)O)C(=O)N[C@@H](CC(N)=O)C(=O)NCC(=O)NCCOCC(=O)N[C@H](CCCCN)C(N)=O)[C@@H](C)O | > 1000 |
| CC(C)[C@H](NC(=O)[C@H](Cc1c[nH]c2ccccc12)NC(=O)[C@H](CC(=O)O)NC(=O)[C@H](C)NC(=O)[C@@H](N)CS)C(=O)N[C@@H](CS)C(=O)N[C@@H](Cc1ccc(O)cc1)C(=O)N[C@@H](Cc1c[nH]c2ccccc12)C(=O)N[C@@H](Cc1cnc[nH]1)C(=O)N[C@H](C(=O)N[C@@H](Cc1ccccc1)C(N)=O)[C@@H](C)O | > 1000 |
| C[C@H](NC(=O)[C@@H](N)CS)C(=O)N[C@@H](CC(=O)O)C(=O)N[C@@H](Cc1c[nH]c2ccccc12)C(=O)N[C@@H](CS)C(=O)N[C@@H](CS)C(=O)N[C@@H](Cc1ccc(O)cc1)C(=O)N[C@@H](Cc1c[nH]c2ccccc12)C(=O)N[C@@H](CS)C(=O)N[C@H](C(=O)N[C@@H](Cc1ccccc1)C(=O)NCC(N)=O)[C@@H](C)O (H-CADWCCYWCTFG-NH2) | > 1000 |
| CC(=O)N[C@@H](CS)C(=O)N[C@@H](C)C(=O)N[C@@H](CC(=O)O)C(=O)N[C@@H](Cc1c[nH]c2ccccc12)C(=O)N[C@H](C(=O)N[C@@H](CS)C(=O)N[C@@H](Cc1ccc(O)cc1)C(=O)N[C@@H](Cc1cccc2ccccc12)C(=O)N[C@@H](Cc1cnc[nH]1)C(=O)NCCC(=O)N[C@@H](Cc1ccccc1)C(=O)NCC(N)=O)C(C)C | > 1000 |
| CC(=O)N[C@@H](CS)C(=O)N[C@@H](CCC(N)=O)C(=O)N[C@H](C(=O)N[C@@H](Cc1c[nH]c2ccccc12)C(=O)N[C@@H](CCC(N)=O)C(=O)N[C@@H](CS)C(=O)N[C@@H](Cc1ccc(O)cc1)C(=O)N[C@@H](Cc1c[nH]c2ccccc12)C(=O)N[C@@H](CCCNC(=N)N)C(=O)N[C@H](CCC(=O)O)C(=O)N[C@@H](CC(N)=O)C(=O)NCC(=O)NCCOCC(=O)N[C@H](CCCCN)C(N)=O)[C@@H](C)O | > 1000 |
| CC(=O)N[C@@H](CS)C(=O)N[C@@H](C)C(=O)N[C@@H](CC(=O)O)C(=O)N[C@@H](Cc1c[nH]c2ccccc12)C(=O)N[C@H](C(=O)N[C@@H](CS)C(=O)N[C@@H](Cc1ccc(O)cc1)C(=O)N[C@@H](Cc1ccc(-c2ccccc2)cc1)C(=O)N[C@@H](CCCN)C(=O)N[C@@H](CN)C(=O)N[C@@H](Cc1ccccc1)C(=O)NCC(=O)NCCOCC(=O)N[C@H](CCCCN)C(N)=O)C(C)C | > 30000 |
| CC(=O)N[C@@H](CS)C(=O)N[C@@H](C)C(=O)N[C@@H](CC(=O)O)C(=O)N[C@@H](Cc1c[nH]c2ccccc12)C(=O)N[C@H](C(=O)N[C@@H](CS)C(=O)N[C@@H](Cc1ccc(O)cc1)C(=O)N[C@@H](Cc1c[nH]c2ccccc12)C(=O)N[C@@H](CCCN)C(=O)N[C@H](C(=O)N[C@@H](Cc1ccccc1)C(=O)NCC(=O)NCCC(=O)N[C@H](CCCCN)C(N)=O)C1CCCCC1)C(C)C | > 30000 |
| CC(=O)N[C@@H](CS)C(=O)N[C@@H](C)C(=O)N[C@@H](CC(=O)O)C(=O)N[C@@H](Cc1c[nH]c2ccccc12)C(=O)N[C@@H](CCCCN)C(=O)N[C@@H](CS)C(=O)N[C@@H](Cc1ccc(O)cc1)C(=O)N[C@@H](Cc1c[nH]c2ccccc12)C(=O)N[C@@H](Cc1cnc[nH]1)C(=O)N[C@H](C(=O)N[C@@H](Cc1ccccc1)C(=O)NCC(=O)O)[C@@H](C)O | > 1000 |
| CC(=O)N[C@@H](CS)C(=O)N[C@@H](CCC(N)=O)C(=O)N[C@H](C(=O)NCC(=O)N[C@@H](CCC(N)=O)C(=O)N[C@@H](CS)C(=O)N[C@@H](Cc1ccc(O)cc1)C(=O)N[C@@H](Cc1c[nH]c2ccccc12)C(=O)N[C@@H](CCC(C)C)C(=O)N[C@@H](CCC(=O)O)C(=O)N[C@@H](CC(N)=O)C(=O)NCC(N)=O)[C@@H](C)O (Ac-CQTGQCYW[hLeu]ENG-NH2) | > 10000 |

The remaining lines, values ahead:

| IC50 [nM] | SMILES |
| --- | --- |
| < 500 | CC(=O)N[C@@H](CS)C(=O)N[C@@H](CCCNC(=N)N)C(=O)N[C@@H](CC(=O)O)C(=O)N[C@@H](Cc1c[nH]c2ccccc12)C(=O)N[C@@H](CCC(N)=O)C(=O)N[C@@H](CS)C(=O)N[C@@H](Cc1ccc(O)cc1)C(=O)N[C@@H](Cc1c[nH]c2ccccc12)C(=O)N[C@@H](Cc1cnc[nH]1)C(=O)N[C@@H](CCCCN)C(=O)N[C@@H](Cc1ccccc1)C(=O)NCC(=O)NCCOCCC(=O)N[C@H](CCCCN)C(=O)O |
| 6000 | CC1CSC[C@@H](C(=O)N[C@@H](Cc2ccc(O)cc2)C(=O)N[C@@H](Cc2c[nH]c3ccccc23)C(=O)N[C@@H](CCCNC(=N)N)C(=O)N[C@@H](CCC(=O)O)C(=O)N[C@@H](CC(N)=O)C(=O)NCC(=O)NCCOCC(=O)N[C@H](CCCCN)C(N)=O)NC(=O)[C@H](CCC(N)=O)NC(=O)[C@H](Cc2c[nH]c3ccccc23)NC(=O)[C@H](CC(=O)O)NC(=O)[C@H](CCC(N)=O)NC1=O (some centres undefined) |
| 100 to 1000 | CC(=O)N[C@H](C(=O)N[C@@H](CCC(N)=O)C(=O)N[C@H](C(=O)N[C@@H](Cc1c[nH]c2ccccc12)C(=O)N[C@@H](CCC(N)=O)C(=O)N[C@H](C(=O)N[C@@H](Cc1cc(F)cc(F)c1)C(=O)N[C@@H](Cc1ccc2ccccc2c1)C(=O)N[C@@](C)(CCCN)C(=O)N[C@@H](CCC(N)=O)C(=O)N[C@@H](CC(N)=O)C(=O)NCC(N)=O)C(C)(C)S)[C@@H](C)O)C(C)(C)S |
| < 500 | CC(=O)N[C@@H](CS)C(=O)N[C@@H](C)C(=O)N[C@@H](CC(=O)O)C(=O)N[C@@H](Cc1c[nH]c2ccccc12)C(=O)N[C@H](C(=O)N[C@@H](CS)C(=O)N[C@@H](Cc1ccc(O)cc1)C(=O)N[C@@H](Cc1c[nH]c2ccccc12)C(=O)N[C@@H](Cc1cnc[nH]1)C(=O)N[C@H](C(=O)N[C@@H](Cc1ccccc1)C(=O)NCC(=O)NCCOCCC(=O)N[C@H](CCCNC(=N)N)C(=O)O)[C@@H](C)O)C(C)C |
| 1000 to 10000 | CC(=O)N[C@@H](CS)C(=O)N[C@@H](C)C(=O)N[C@@H](CC(=O)O)C(=O)N[C@@H](Cc1c[nH]c2ccccc12)C(=O)N[C@H](C(=O)N[C@@H](CS)C(=O)N[C@@H](Cc1ccc(O)cc1)C(=O)N[C@@H](Cc1c[nH]c2ccccc12)C(=O)N[C@@H](Cc1cnc[nH]1)C(=O)N[C@H](C(=O)N[C@@H](CCCCNC(=O)COCC(=O)NCCCC[C@H](NC(=O)[C@@H](NC(=O)[C@H](Cc1cnc[nH]1)NC(=O)[C@H](Cc1c[nH]c2ccccc12)NC(=O)[C@H](Cc1ccc(O)cc1)NC(=O)[C@H](CS)NC(=O)[C@@H](NC(=O)[C@H](Cc1c[nH]c2ccccc12)NC(=O)[C@H](CC(=O)O)NC(=O)[C@H](C)NC(=O)[C@H](CS)NC(C)=O)C(C)C)[C@@H](C)O)C(=O)NCC(=O)O)C(=O)NCC(=O)O)[C@@H](C)O)C(C)C |
| 1000 to 10000 | CC(=O)NC1CC/C=C\CCCC(C(=O)N[C@@H](Cc2ccc(O)cc2)C(=O)N[C@@H](Cc2c[nH]c3ccccc23)C(=O)N[C@@H](CCCNC(=N)N)C(=O)N[C@@H](CCCCN)C(=O)N[C@@H](Cc2ccccc2)C(=O)NCC(=O)NCCOCC(=O)N[C@H](CCCCN)C(N)=O)NC(=O)[C@H](CCC(N)=O)NC(=O)[C@H](Cc2c[nH]c3ccccc23)NC(=O)[C@H]([C@@H](C)O)NC(=O)[C@H](CCCNC(=N)N)NC1=O (some centres undefined) |
| 30000 | CCCCCCCCCCCCCCCC(=O)NCCCC[C@H](NC(=O)[C@H](Cc1c[nH]c2ccccc12)NC(=O)[C@@H](NC(=O)[C@H](CCC(N)=O)NC(=O)[C@H](CS)NC(C)=O)[C@@H](C)O)C(=O)N[C@@H](CS)C(=O)N[C@@H](Cc1ccc(O)cc1)C(=O)N[C@@H](Cc1c[nH]c2ccccc12)C(=O)N[C@@H](CC(C)C)C(=O)N[C@@H](CCC(=O)O)C(=O)N[C@@H](CC(N)=O)C(=O)NCC(N)=O |
| 500 to 1000 | CSCC[C@H](NC(=O)[C@H](CS)NC(=O)[C@H](Cc1cnc[nH]1)NC(=O)[C@@H](NC(=O)[C@H](CO)NC(=O)CNC(C)=O)C(C)C)C(=O)N[C@H](C(=O)N[C@@H](Cc1c[nH]c2ccccc12)C(=O)N[C@@H](CCC(=O)O)C(=O)N[C@@H](CS)C(=O)N[C@@H](Cc1ccc(O)cc1)C(=O)N[C@@H](Cc1c[nH]c2ccccc12)C(=O)N[C@@H](Cc1cnc[nH]1)C(=O)N[C@H](C(=O)N[C@@H](Cc1ccccc1)C(=O)NCC(N)=O)[C@@H](C)O)[C@@H](C)O (Ac-GSVHCMTWECYWHTFG-NH2) |
| 100 to 1000 | CC(=O)N[C@H]1CCSC[C@@H](C(=O)N[C@@H](Cc2ccc(Cl)c(Cl)c2)C(=O)N[C@@H](Cc2ccc3ccccc3c2)C(=O)NC(C)(C)C(=O)N[C@@H](CCC(=O)O)C(=O)N[C@@H](CC(N)=O)C(=O)NCC(N)=O)NC(=O)[C@H](CCC(N)=O)NC(=O)[C@H](Cc2c[nH]c3ccccc23)NC(=O)[C@H]([C@@H](C)O)NC(=O)[C@H](CCC(N)=O)NC1=O |
| 500 to 1000 | CC(=O)N[C@@H](CS)C(=O)N[C@@H](C)C(=O)N[C@@H](CC(=O)O)C(=O)N[C@@H](Cc1c[nH]c2ccccc12)C(=O)N[C@H](C(=O)N[C@@H](CS)C(=O)N[C@@H](Cc1ccc(O)cc1)C(=O)N[C@@H](Cc1c[nH]c2ccccc12)C(=O)N[C@@H](Cc1cnc[nH]1)C(=O)N[C@@H](CCCNC(=N)N)C(=O)N[C@@H](CO)C(=O)N[C@H](C(=O)NCC(=O)NCC(=O)N[C@@H](CCC(N)=O)C(=O)N[C@@H](Cc1cnc[nH]1)C(N)=O)[C@@H](C)O)C(C)C (Ac-CADWVCYWHRSTGGQH-NH2) |
